Laboratory results as given in patent publication US20030162803A1, “Anhydrovinblastine for the treatment of cancer” (priority 1997, published 2003).
Structures can show the parent of a compound that is named as a salt.

Experiments:
SK0V3 cells = assay: Cytotoxicity assay, SKOV3 (FIG. 8); assay type: cell-based; details: 3 day incubation
Description: (§1) The IC50s for the SK0V3 and C-4 cells were 4.0 μM and 0.02 μM respectively. Both cell lines were obtained from the ATCC and grown using standard growth techniques and medium as described above. The IC50s were determined through standard cytoxicity assays described above, with each well containing approximately 10^4 cells.

C-4 cells = assay: Cytotoxicity assay, C-4 (FIG. 8); assay type: cell-based, human; details: 3 day incubation
Description: as §1

[1] = system: H460 human non-small cell lung carcinoma, C-4 human cervical carcinoma, K562 human leukaemia, and the A431 human epidermoid cell lines; assay: MTT cytotoxicity assay, 72 hours, panel of human cancer cell lines; assay type: cell-based
[2] = system: C-4 Human Cervical Carcinoma; assay: C-4 (cervical) solid tumor model; assay type: in vivo, Rag-2 mice
Description: Cultures of C-4 Human Cervical Carcinoma cells are available from the British Columbia Cancer Research Centre. Cells were injected subcutaneously twice into mature male Rag-2 mice (24 mice, 1×10^6 cells/mouse) using a 26-gauge needle. The C-4 cells were suspended in a Hank's Balanced Salt Solution without calcium. Tumors were allowed to form in the mice for 31 days.
When the tumors were well established, four separate groups of mice, were selected for administration of the three test articles (i.e. one group for each test article of AHVB bisulphate, AHVB ditartrate, and Navelbine™) and one control.
AHVB bisulphate and ditartrate, and Navelbine™ were solubilized using 5% dextrose saturated with Argon. These articles were administered at doses of 20 mg/Kg intravenously. Any dose dilutions were made with 5% dextrose.
The articles were administered intravenously on the days 1, 5 and 9, as were controls of 5% dextrose. Body weights and tumor measurements with calipers were taken regularly over the period of the study of 69 days.
Following administration of the test articles, the animals; weight and tumor size (using calipers) were determined regularly over the period of the study. If the tumor size reached I gram in weight or the tumor started to ulcerate, the animals were sacrificed (by carbon dioxide inhalation) and subjected to necropsy. Animals were also monitored at least daily for signs of stress for the full length of the study. Animals manifesting severe symptoms of stress (rapid weight loss, panting, hunched posture, scruffy coat) were also sacrificed and a necropsy performed.
The results of the efficacy studies are given in Table 3 and present averages of data from 6 or fewer animals. Each mouse in a given article group had two subcutaneous tumors on its back. Each tumor was measured in length and width and the volume of each tumor was calculated by […]. The two tumor volumes were then averaged. The volume averages of all the mice/group were averaged to yield a mean for each single date point. The calculation was performed each day the tumors were measured.

[3] = Toxicological studies in rats; assay type: in vivo
[4] = Toxicological studies in dogs; assay type: in vivo
[5] = Murine P388 model in BDF1 mice; assay type: in vivo; details: female, mouse, in vivo; single bolus intravenous injection, BDF1 mice bearing P388 tumors; read-out: maximum tolerated dose
Description: Antitumor studies on mice focussed, in one case, on the P388 leukaemia model. […] This is an ascitic tumor model that was generated by intraperitoneal inoculation of 1×10^6 P388 cells (derived from culture, with an original cell line obtained from the NCI tumor repository) in BDF1 mice (Charles Rivers). One day after tumor cell inoculation, mice were treated with a single intravenous injection of drug. Animal weight was monitored daily and tumor progression was measured as an increase in animal weight and through estimation of survival time. Therapy was described by a decrease in tumor progression and an increase in survival time relative to an untreated control group. Initial studies established the maximum therapeutic dose for AHVB. Subsequently comparative studies with vincristine and Navelbine™ were initiated where animals were treated with each drug at the maximum therapeutic dose.
The in vivo anti-tumor activity of AHVB was compared to that of vincristine, Navelbine™ in the BDF1-murine P388 model in the procedure as follows. P388 cells were derived from the ascities of previously injected female BDF1 mice (19-21 grams) P388 cells, from the NCI tumor repository were inoculated directly into mice. The cells arrive from NCI frozen in 1 ml aliquots. These samples were thawed rapidly at 37° C. and subsequently injected (within 1 hour) intraperitoneally into two mice, 0.5 ml per mouse. One week (7 days) after inoculation, the tumor cells were harvested by removing peritoneal fluid using a sterile syringe with a 22 gauge needle. The cells, pooled from two animals, were counted using a hemocytometer, diluted (RPMI media) to a concentration of 2×10^6 cells/ml and 0.5 ml was then re-injected into each of two BDF1 mice. Remaining cells were washed and placed into a DMSO containing media and frozen (in freezer packs that cool at a defined rate). This process was repeated weekly over a […]. Cells used for anti-tumor studies were collected from the third passage to the 20th passage. After the 20th passage the cells were no longer used for experimental studies. Newly established cells were derived from the frozen cells prepared as described above.
Groups (five mice per group) of female BDF1 mice (Charles Rivers, Canada) were injected (intraperitoneal) with 10^6 P388 cells (as described above). One day after tumor cell inoculation, the mice were given a bolus intravenous injection of indicated drug via the lateral tail vein. Control groups were injected with saline. Free drug samples were prepared on the day of injection such that the final concentrations were sufficient to deliver the indicated drug dose in a volume of 200 μl. All dilutions were made using 0.9% Sodium Chloride Injection USP. The mice were briefly (less than 30 sec.) restrained during intravenous injections. Dilation of the vein was achieved by holding the animals under a heat lamp for a period of between five and ten minutes. Following administration of the test articles, animals were weighed daily for fourteen days and monitored for signs of stress twice daily for the first 14 days (once daily on weekends) and once daily for the remainder of the study. Severely distressed animals were terminated by CO2 asphyxiation and the time of death was recorded to occur on the following day. Although complete dose titrations were completed for each drug, the data shown in FIG. 6 is that obtained after administration of the free drugs at their maximum tolerated dose. This was 3, 40 and 40 mg/kg for vincristine, Navelbine™ and AHVB, respectively.
After treating mice (bearing the P388 tumor) with a single dose of the indicated drug, animals were examined twice daily for the first 14 days (once daily on weekends). Weight gain in the control is an indication of tumor progression.
The studies were conducted as described for FIG. 6. […]

[6] = single agent; cited from earlier work
nerves = details: vs vinblastine, vindesine; cited from earlier work
[7] = 20 mg/kg intravenously on days 1, 5, 9

Work on CCC1=C[C@H]2CN(CCc3c([nH]c4ccccc34)[C@@](C(=O)OC)(c3cc4c(cc3OC)N(C)[C@H]3[C@@](O)(C(=O)OC)[C@H](OC(C)=O)[C@]5(CC)C=CCN6CC[C@]43[C@@H]65)C2)C1 [AHVB, 3′,4′-anhydrovinblastine] yielded an IC50 (SK0V3 cells) of 4000 nM, an IC50 (C-4 cells) of 20 nM and an IC50 ([1]; drug exposure time 72 hours, range over H460, C-4, K562, A431) of 20 to 24 nM. The “fold less active than Navelbine in vitro” value ([1]; same cell lines) was “approximately 10 fold”, the “activity compared with vincristine and vinorelbine” value ([2]; human tumor xenografts of cervical cancer, equitoxic doses) was “superior activity to that of both vincristine and vinorelbine” and the toxicities [3] was “reversible myelosupression and gastrointestinal toxicities”. The toxicities [4] was “reversible myelosupression and gastrointestinal toxicities”.

For CCC1=C[C@@H]2CN(C1)Cc1c([nH]c3ccccc13)[C@@](C(=O)OC)(c1cc3c(cc1OC)N(C)[C@H]1[C@@](O)(C(=O)OC)[C@H](OC(C)=O)[C@]4(CC)C=CCN5CC[C@]31[C@@H]54)C2 [Navelbine, 3′,4′-didehydro-4′-deoxy-C′-norvincaleukoblastine-di-L-tartrate], the MTD at 14 days [5] was 40 mg/kg, the “% Delay In Growth (Dig)” value [2, 7] was 84% and the “Initial Growth (Day) Of Expt.” value [2, 7] was 29 days. The “Initial Growth (Day) Total” value [2, 7] was 59 days, the “day tumors reached observable 'growth threshold'” value [2, 7] was 41 days and the “mild to moderate peripheral neuropathy (paresthesia and hypesthesia), frequency” value [6] was 10 % of patients.

For CC[C@]1(O)C[C@H]2CN(CCc3c([nH]c4ccccc34)[C@@](C(=O)OC)(c3cc4c(cc3OC)N(C=O)[C@H]3[C@@](O)(C(=O)OC)[C@H](OC(C)=O)[C@]5(CC)C=CCN6CC[C@]43[C@@H]65)C2)C1 [Vincristine, Sulfate of 22-oxovincaleukoblastine], the MTD at 14 days [5] is listed as 3 mg/kg and the “uptake into nerves, times faster than the other drugs” value (nerves) is listed as 4 times.
